Experimental data from patent publication US5688773A, “Method of selectively destroying neoplastic cells” (priority 1994, dated 1997).

Assays:
C6-P450 cells = experiment: Trypsinization and replating assay; assay type: cell-based, rat; conditions: for Cell number: replated, counted nine days later
Experimental: (§1) Trypsinization and replating assay: To determine the temporal kinetics of CPA-mediated cytotoxicity, 2×10^6 cells were plated onto each 10 cm dish. Twenty-four hours later, 0.5 mM CPA was added and cells were incubated for the times indicated in each figure. Cells were then trypsinized and replated at a density of 2×10^5 cells/10 cm dish. Nine days later, cell numbers were evaluated by Coulter counting.

C6 cells [1] = experiment: Trypsinization and replating assay; assay type: cell-based, rat; conditions: for Cell number: replated, counted nine days later
Experimental: as §1

C6 cells [2] = experiment: Conditioned medium from co-cultures added to naive C6 cells; assay type: cell-based, rat; conditions: CM from co-cultures with 0, 10, or 50% P450 2B1 cells after four-day CPA
Experimental: Co-culture assay: Co-cultures of C6-P450 and C6 cells were incubated in triplicate at different ratios (where 0, 10, 50, 90, and 100% of the cells were C6-P450 cells) to achieve a total number of 2×10^6 cells/10 cm dish. After 24 hours, 0.5 mM CPA was added and four days later, cells were counted as previously described. To compare the killing achieved by cell contact with that obtained by exposure to conditioned medium, the supernatant from each co-culture was harvested, filtered through 0.45 μm membrane filters, mixed in a 1:1 ratio with 5 mL of fresh medium and added to overnight cultures of C6 cells (2×10^6 cells/10 cm dish in triplicate). Four days later, C6 cells were washed, harvested and counted. To determine the specificity of the cell-mediated killing effect from the co-culture assays, C6 cells were incubated overnight with C6 cells that expressed the neomycin phosphotransferase gene (C6-Neo), with irradiated C6 cells, with irradiated C6-Neo, and with irradiated C6-P450 cells. γ-irradiation was performed by exposing cells to a total of 6000 rads emitted by a ^51 chromium source.

C450-8 cells = experiment: cells; conditions: Rattus norvegicus, read-out: CPA concentration reducing the number of cells by 50%
Experimental: Cyclophosphamide Dose-Response Assay: For dose-response curves, cells were plated at a density of 2×10^5 cells/100 mm dish (Corning) in quintuplicate. Two days later CPA was added to final concentrations of 0-100 μM. Five days after plating, the monolayers were rinsed twice with Hank's buffered saline (GIBCO) to remove dead cells. Monolayers were dispersed using trypsin-EDTA (GIBCO), and cell numbers were determined using a Coulter counter (Coulter Electronics Inc.).

C6BAG and C6VIK cells = experiment: Ganciclovir treatment of combined subcutaneous tumors; assay type: in vivo, nude mice; conditions: 14 day course, 25 mg/kg twice a day intraperitoneally
Experimental: Sequential injections of 10^5 C6BAG cells followed immediately by 10^6 C6BU1 cells, C6VIK cells, or C6VIKWT cells at the same injection site, were carried out as above using 20 animals for each combination. After the tumors had reached 1 cm in diameter, ganciclovir treatment was begun for 14 days, 25 mg/kg twice a day intraperitoneally in half of each group, with the other half receiving PBS intraperitoneally as a control. Tumor volume was assessed as the percentage increase over the volume at the beginning of treatment through 17 days.

C6VIK cells = experiment: Ganciclovir sensitivity in vivo, subrenal capsule tumors; set-up: species or system rat; conditions: 20 mg/kg intraperitoneally daily; reassessed over a 16-day period; two animals
Excerpt: In this study, rat C6 glioma cells were used as a model primary brain tumor type. C6 cells rapidly form a non-encapsulated, non-metastatic tumor after injection into the adult rat CNS. Further, derivative cell lines are available, which lack endogenous TK activity (C6-BUI) or bear the lacZ gene (C6-BAG), which are useful experimentally. A retroviral vector was generated in which the HSV-1-TK gene is regulated by the strong, constitutive retrovirus LTR promoter. C6-BUI cells were infected with this vector and selected for TK activity by growth in HAT medium. Parental and infected cells were tested for their dose-dependent sensitivity to ganciclovir in culture and in vivo following inoculation into the rat subrenal capsule.
Ganciclovir Sensitivity in vivo: Nine rats were implanted in the subrenal capsule with C6VIK cells. Four survived the procedure for further study. Tumors were measured 5 days after implantation. Two animals were treated with ganciclovir (20 mg/kg intraperitoneally daily) and two with saline daily. Tumor size was reassessed over a 16-day period. The two control tumors grew four- to twelve-fold.
This model overcomes the problem of not being able to directly observe the size of an intracerebral tumor implant and the concerns about delivery of ganciclovir through an intact blood-brain barrier.

C6VIKWT tumors = experiment: Ganciclovir sensitivity of subcutaneous tumors in vivo; set-up: species or system nude mice
Experimental: Ganciclovir therapy was begun when tumor size reached 1 cm in diameter as measured by calipers, by intraperitoneal injections up to 25 mg/kg daily for 14 days. […] Tumor volumes were measured biweekly during treatment over a 24 day period, and were expressed as a percentage compared to the volume at the time treatment was begun.

[3] = Table V panel B, survivors of panel A replated, nine days

## O=P1(N(CCCl)CCCl)NCCCO1 (stereo not drawn) [cyclophosphamide]
C6-P450 cells; 0.5 mM CPA
  pulse of CPA sufficient to completely inhibit the growth of replated cells: 3 h
C6-P450 cells; 0.5 mM CPA for 0.5 h
  Cell number: 12 ± 1 ×10^6
C6-P450 cells; 0.5 mM CPA for 1.5 h
  Cell number: 24.1 ± 0.6 ×10^6
C6-P450 cells; 0.5 mM CPA for 3 h
  Cell number: 0.2 ×10^6
C6-P450 cells; 0.5 mM CPA for 6 h
  Cell number: 0.1 ×10^6
C6-P450 cells; 0.5 mM CPA for 10 h
  Cell number: 0.1 ×10^6
C6-P450 cells; 0.5 mM CPA for 24 h
  Cell number: 0.1 ×10^6
C6-P450 cells; 0.5 mM CPA for 32 h
  Cell number: 0 ×10^6
C6-P450 cells; 0.5 mM CPA for 48 h
  Cell number: 0.1 ×10^6
C6-P450 cells; 0.5 mM CPA for 72 h
  Cell number: 0 ×10^6
C6-P450 cells; 0.5 mM CPA for 96 h
  Cell number: 0 ×10^6
C6-P450 cells; 0.5 mM, trypsinization and replating
  Proliferation of treated cells after replating: completely inhibited
C6-P450 cells; [3]
  Trypsinization and replating assay, cell count: 0.11±0.01
C6 cells [1]; 0.5 mM CPA for 0.5 h
  Cell number: 11.6 ± 0.4 ×10^6
C6 cells [1]; 0.5 mM CPA for 1.5 h
  Cell number: 21.7 ± 0.6 ×10^6
C6 cells [1]; 0.5 mM CPA for 3 h
  Cell number: 13.1 ± 1.6 ×10^6
C6 cells [1]; 0.5 mM CPA for 6 h
  Cell number: 12.9 ± 0.7 ×10^6
C6 cells [1]; 0.5 mM CPA for 10 h
  Cell number: 20.4 ± 0.6 ×10^6
C6 cells [1]; 0.5 mM CPA for 24 h
  Cell number: 17 ± 0.7 ×10^6
C6 cells [1]; 0.5 mM CPA for 32 h
  Cell number: 15.4 ± 0.5 ×10^6
C6 cells [1]; 0.5 mM CPA for 48 h
  Cell number: 18.3 ± 1 ×10^6
C6 cells [1]; 0.5 mM CPA for 72 h
  Cell number: 20.2 ×10^6
C6 cells [1]; 0.5 mM CPA for 96 h
  Cell number: 28.8 ± 0.8 ×10^6
C6 cells [1]; [3]
  Trypsinization and replating assay, cell count: 21.48±0.38
C6 cells [2]
  Inhibition of proliferation of C6 cells: no inhibition
C450-8 cells
  IC50: 27 µM

## Nc1nc(O)c2ncn(COC(CO)CO)c2n1 [ganciclovir]
C6BAG and C6VIK cells
  Tumor volume compared to C6BAG and C6BU1 tumors: significant decrease in the tumor volume
C6VIK cells
  Tumor size after treatment: smaller after the treatment than before
C6VIKWT tumors; ganciclovir for 14 days from tumor size 1 cm
  Tumor growth: inhibited subsequent growth completely
C6VIKWT tumors; subcutaneous inoculation, GCV treatment
  Tumor regression: regression of tumors in most nude mice
